ChEMBL document CHEMBL1156898, “Synthesis, photophysical properties and photocytotoxicity of mono-, di-, tri- and tetra-glucosylated fluorophenylporphyrins” (Bioorg Med Chem, 2010)
Active and inactive are the calls of the source. The rule behind the calls is not given here.

Assays:
HeLa [1] = assay: Phototoxicity against human HeLa cells irradiated with 16Jcm'-2 from halogen lamp assessed as cell survival at 100 nM after 24 hrs by WST8 assay; assay type: functional, cell-based; conditions: light or radiation study
HeLa [2] = assay: Cytotoxicity against human HeLa cells assessed as cell survival in dark at 100 nM after 24 hrs by WST8 assay; assay type: functional, cell-based
HeLa [3] = assay: Drug uptake in human HeLa cells at 80 nM after 24 hrs relative to TPPS; assay type: ADME, cell-based; conditions: 0.08 µM
[4] = Lipophilicity, log P of the compound; assay type: physicochemical; conditions: octanol/water
HeLa [5] = assay: Phototoxicity in human HeLa cells assessed as induction of cell shrinkage at 500 nM after 3 hrs using DAPI staining by confocal laser scanning microscopy; assay type: functional, cell-based
HeLa [6] = assay: Phototoxicity in human HeLa cells assessed as induction of apoptotic bodies at 500 nM after 3 hrs using DAPI staining by confocal laser scanning microscopy; assay type: functional, cell-based

Activity (HeLa [3]) | logP [4] | SMILES | % survival (HeLa [1]) | Activity (HeLa [2]) | Activity (HeLa [5]) | Activity (HeLa [6])
Active | 3.98 | OC[C@H]1O[C@@H](Sc2c(F)c(F)c(-c3c4nc(c(-c5c(F)c(F)c(S[C@@H]6O[C@H](CO)[C@@H](O)[C@H](O)[C@H]6O)c(F)c5F)c5ccc([nH]5)c(-c5c(F)c(F)c(F)c(F)c5F)c5nc(c(-c6c(F)c(F)c(F)c(F)c6F)c6ccc3[nH]6)C=C5)C=C4)c(F)c2F)[C@H](O)[C@@H](O)[C@@H]1O | 90% | Not toxic |  | 
Active | 3.53 | OC[C@H]1O[C@@H](Sc2c(F)c(F)c(-c3c4nc(c(-c5c(F)c(F)c(F)c(F)c5F)c5ccc([nH]5)c(-c5c(F)c(F)c(S[C@@H]6O[C@H](CO)[C@@H](O)[C@H](O)[C@H]6O)c(F)c5F)c5nc(c(-c6c(F)c(F)c(F)c(F)c6F)c6ccc3[nH]6)C=C5)C=C4)c(F)c2F)[C@H](O)[C@@H](O)[C@@H]1O | < 5% | Not toxic | Active | Active

The remaining lines, values behind:

SMILES | Activity (HeLa [3]) | logP [4] | % survival (HeLa [1]) | Activity (HeLa [2]) | Activity (HeLa [5]) | Activity (HeLa [6])
OC[C@H]1O[C@@H](Sc2c(F)c(F)c(-c3c4nc(c(-c5c(F)c(F)c(S[C@@H]6O[C@H](CO)[C@@H](O)[C@H](O)[C@H]6O)c(F)c5F)c5ccc([nH]5)c(-c5c(F)c(F)c(S[C@@H]6O[C@H](CO)[C@@H](O)[C@H](O)[C@H]6O)c(F)c5F)c5nc(c(-c6c(F)c(F)c(S[C@@H]7O[C@H](CO)[C@@H](O)[C@H](O)[C@H]7O)c(F)c6F)c6ccc3[nH]6)C=C5)C=C4)c(F)c2F)[C@H](O)[C@@H](O)[C@@H]1O | Active | 0.75 | 90% | Not toxic |  | 
OC[C@H]1O[C@@H](Sc2c(F)c(F)c(-c3c4nc(c(-c5c(F)c(F)c(F)c(F)c5F)c5ccc([nH]5)c(-c5c(F)c(F)c(F)c(F)c5F)c5nc(c(-c6c(F)c(F)c(F)c(F)c6F)c6ccc3[nH]6)C=C5)C=C4)c(F)c2F)[C@H](O)[C@@H](O)[C@@H]1O | Active | 5.11 | 90% | Not toxic |  | 
OC[C@H]1O[C@@H](Sc2c(F)c(F)c(-c3c4nc(c(-c5c(F)c(F)c(S[C@@H]6O[C@H](CO)[C@@H](O)[C@H](O)[C@H]6O)c(F)c5F)c5ccc([nH]5)c(-c5c(F)c(F)c(S[C@@H]6O[C@H](CO)[C@@H](O)[C@H](O)[C@H]6O)c(F)c5F)c5nc(c(-c6c(F)c(F)c(F)c(F)c6F)c6ccc3[nH]6)C=C5)C=C4)c(F)c2F)[C@H](O)[C@@H](O)[C@@H]1O | Active | 2.99 | 80% | Not toxic |  | 
